Assay results taken from patent publication US20230255906A1, “Targeting Serpin B9 in Cancer” (The Brigham and Women`s Hospital, Inc., priority 2020, published 2023).

Assays:
SERPINB9 [1] = target: T1, SERPINB9 (Homo sapiens, UniProt P50453); test: Isothermal titration calorimetry (ITC); format: binding; details: 20 μM SERPINB9 titrated with 200 μM compound, single site model
T1 construct: A construct of human SERPINB9 covering residues 2-376 in the pFastBacl vector; made in house; host or cells: insect Tni (Trichoplusia ni) cells, baculovirus
T1 sequence (P50453 2-376): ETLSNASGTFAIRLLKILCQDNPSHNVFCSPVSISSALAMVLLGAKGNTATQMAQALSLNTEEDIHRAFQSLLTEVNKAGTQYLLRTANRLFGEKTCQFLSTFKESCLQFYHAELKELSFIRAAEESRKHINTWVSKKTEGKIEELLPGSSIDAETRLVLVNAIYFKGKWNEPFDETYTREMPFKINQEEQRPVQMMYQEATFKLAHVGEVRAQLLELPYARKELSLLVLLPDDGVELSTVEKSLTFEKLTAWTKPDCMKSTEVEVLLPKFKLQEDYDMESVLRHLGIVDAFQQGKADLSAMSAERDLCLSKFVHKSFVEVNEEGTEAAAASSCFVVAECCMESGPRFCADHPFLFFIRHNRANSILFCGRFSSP
Procedure: In an attempt to produce a soluble variant of Sb9, a construct was designed in which a maltose-binding protein (MBP) was added at the N-terminus (FIG. 4B). Sb9 was soluble in multiple growth media conditions using this strategy. The condition (1 mM IPTG, 37° C., 3 h) for best expression was selected for biomass production with 5 L culture. The cells were lysed and clarified by centrifugation. The fusion protein was then captured by Ni-NTA affinity purification, such that it was eluted using high concentration imidazole. Then, the resulting protein was further purified by anionic exchange chromatography using a MonoQ column and a NaCl gradient for elution. An amount of 31.4 mg protein was obtained. The purified Sb9 protein was characterized by SDS-PAGE and MALDI-TOF mass spectrometry (MS). A construct of human SERPINB9 covering residues 2-376 in the pFastBacl vector (Invitrogen) was overexpressed in insect Tni (Trichoplusia ni.) cells adapted for suspension culture in ESF921 medium (Expression systems). Cells were grown at 27° C. to a density of ˜2 million cells per mL, infected with baculovirus containing SERPINB9 construct, collected by centrifugation around 60 hrs post-infection, and stored at −80° C. […]

SERPINB9 [2] = target: T1, SERPINB9; test: Ligand-detected NMR (DLB, STD, CPMG-R2); format: binding
From the text: Ligand-focused NMR. To test the binding of Compound 27 and Compound 225 to SERPINB9, we used three ligand-detected nuclear magnetic resonance (NMR) methods: differential line broadening (DLB), saturation transfer difference (STD), and Carr-Purcell-Meiboom-Gill-transverse relaxation rate (CPMG-R2). […] Second, on-resonance saturation of SERPINB9 decreased the intensity of compound peaks in the STD experiment, indicating transmission of magnetization energy from SERPINB9 to proximal ligands. Finally, as ligands engaging the target protein relax faster (compared to free small molecules that have slow transverse relaxation rates in CPMG-R2 experiments), we saw a decreased relaxation time in the presence of a protein directly indicating binding of the ligand to that protein.

MBP-Sb9 [3] = test: Thermal stability assay (TSA) fragment screen; format: binding; details: 5000 to 21 μM
Procedure: FIG. 4A. The upper panels show the TSA results of the MBP-Sb9 protein incubated with 5 mM 3,4-dihydroxybenzoic acid (3,4-DHBA; left) and 3-oxo-1-indancarboxylic acid (right), or with 2.5% DMSO. The thermal shifts of the compounds 3,4-dihydroxybenzoic acid and 3-oxo-1-indancarboxylic acid are shown in a thick dark line against a baseline control shown as a thin gray line. The bottom panels show the TSA results of the MBP-Sb9 protein incubated with 3,4-dihydroxybenzoic acid (left) or 3-oxo-1-indancarboxylic acid (right) at different concentrations, including 5000, 1667, 556, 185, 62, and 21 μM. The concentration-response curves are plotted in a black/gray color scale (higher intensity is higher concentration) and the straight line plots represent the compound background signal.
TSA is an analytic tool to estimate the overall stability of a protein by monitoring the shift in its melting temperature upon changing the buffer conditions or titrating various ligands. As the protein unfolds with increasing temperature in a thermal cycler (CFX384 Touch Real-Time PCR Detection System), SYPRO orange dye binds to the exposed hydrophobic core and fluoresces, leading to the signal that is measured in comparison to temperature to produce a melt curve. […] Dye was added at 2×strength, and the readings were performed from 25° C. to 95° C. at 0.5° C. intervals. […]

[4] = tested on: B16-WT mouse melanoma tumors; test: B16 melanoma tumor model in C57BL/6 mice; format: in vivo
Procedure: (§1) Mice were anesthetized with isoflurane, and tumor cell lines (B16, A375, and 4T1) were gently injected subcutaneously in the flanks or mammary glands of mice. One hundred thousand cells (1×10^5 cells) were injected per mouse for most of the experiments. However, twenty-five thousand cells (25×10^3 cells) were injected per mouse for the experiments using the compound of Formula (III). Upon 4 hrs post-implantation, 300 μg of the compound of Formula (III) was administered twice a day intraperitoneally for 14 days. Tumor growth was monitored three times per week by digital caliper (Fisherbrand™ Traceable™ Digital Calipers).
The anti-tumor activity of the compound of Formula (III) in vivo was assessed. […] Treatment with the compound of Formula (III) increased the median survival time (MST) of mice bearing B 16-WT mouse melanoma tumors and receiving treatment with the compound of Formula (III) as compared to mice bearing B16-WT melanoma tumors and not receiving treatment (MST=39 days vs MST=26 days, respectively) (FIG. 51B). Next, the effect of the compound of Formula (III) on tumor immunity was examined.
The efficacy of the compound of Formula (III) was assessed in C57BL/6J mice (FIG. 18). B16 mouse melanoma cells were implanted subcutaneously into the right flanks of C57BL/6J mice, and the mice were randomized into three groups: (1) no treatment (control), (2) treatment with anti-PD1, and (3) treatment with Formula (III). The mice in the anti-PD1 group received 200 μg of anti-PD1 iv every 3 days, and those in the Formula (III) group received 300 μg of Formula (III) twice a day consecutively for 14 days.
A survival study using the compound of Formula (IV) in mice harboring B16 melanoma was performed. Mice implanted with B16 tumors were treated with the compound of Formula (IV) (n=8) and compared to a control group having B16 tumors and not receiving treatment with the compound of Formula (IV) (n=8).

MBP-Sb9 [5] = target: T2, MBP-Sb9 (Homo sapiens, UniProt P50453); test: Saturation-Transfer Difference (STD) NMR assay; format: binding; details: 420 μM compound, 45 μM Sb9 protein, PBS pH 7.0, 25° C.
T2 construct: made in house
T2 sequence (P50453 2-376): T1 sequence (P50453 2-376)
From the text: The Saturation-Transfer Difference (STD) NMR assay was used to evaluate the binding of the compound of Formula (III) to Sb9. […] The saturation period was 3.0 seconds with irradiation at 0 ppm (on-resonance excitation) and −20 ppm (off-resonance excitation). The number of scans was 160 for the on and off-resonance spectra, respectively. Spectra were processed using Topspin software and apodized with exponential multiplication with 1.0 Hz line-broadening.
The Saturation-Transfer Difference (STD) NMR assay was used to evaluate the binding of the compounds of Formulas (I) and (II) to Sb9. […] The saturation period was 3.0 seconds with irradiation at 0.7 ppm (on-resonance excitation) and 20 ppm (off-resonance excitation). The number of scans was 800. The spectra were processed using Topspin software with 1.0 Hz line-broadening.
The Saturation-Transfer Difference (STD) NMR assay as described herein was used to evaluate the binding of the compound of Formula (III) to Sb9.

4T1 breast tumors = test: 4T1 breast tumor model in BALB/c mice; format: in vivo, mouse; details: i.p. twice a day 14 days
Procedure: as §1
Sb9 is highly expressed in human primary breast tumor cells (FIG. 6D) and in the stromal cells within the TME (FIGS. 6D-6E). Whether the compound of Formula (III) could be used to treat mice implanted with 4T1 breast tumor cells was therefore determined. […] Treatment with the compound of Formula (III) increased the median survival time (MST) of mice bearing 4T1 breast tumors and receiving treatment with the compound of Formula (III) as compared to mice bearing 4T1 breast tumors and not receiving treatment (MST=28 days vs MST=22 days, respectively) (FIG. 6G).
For mouse Breast Cancer model, 1×10^5 4T1 cells were subcutaneously implanted into the fourth mammary pad of BABL/c mice, and mice were separated randomly into three groups: Control, compound of Formula (I), and compound of Formula (II). In the compound of Formula (I) group, mice were treated with the compound of Formula (I) for 14 days consecutively ([…], i.p, twice a day). In the compound of Formula (II) group, mice were administrated the compound of Formula (II) 14 days consecutively (300 μg/mouse, i.p, twice a day). Tumor sizes were measured every 3 days from day 5 post-tumor implantation and calculated with formula length×width^2/2.

cancer cells = test: Caspase-3 immunofluorescence in cancer cells; format: cell-based; details: 200 μM, 48 hrs
Procedure: 1×10^4 cancer cells were seeded in an 8-well chamber and treated with 200 μM of the compounds of Formulas (I) and (II) for 48 hrs. Controls were the equal amount of DMSO. Cells were stained with anti-caspase3. DAPI was used to counterstain the cell nuclei. The stained tissue sections were visualized using an EVOS™ FL Auto 2 Imaging System.

Row | Kd (SERPINB9 [1]) [µM] | binding to SERPINB9 by ligand-detected NMR (SERPINB9 [2]) | SMILES | binding to MBP-Sb9 by STD NMR (MBP-Sb9 [5]) | tumor size vs Control group (4T1 breast tumors; Day 14 post-tumor implantation) | caspase-3 expression compared to DMSO (cancer cells) | other results
1 | 21.5 | SERPINB9 binders | CCN(C)C(=O)c1ccc2nc(-c3ccccc3)oc2c1 [Compound 27, N-ethyl-N-methyl-2-phenyl-1,3-benzoxazole-6-carboxamide] |  |  |  | 
2 |  |  | O=C1CC(C(=O)O)c2ccccc21 (centres unmarked) [3-oxo-1-indancarboxylic acid] |  |  |  | Tm1 shift (MBP-Sb9 [3]): dose-dependent Tm1 shift
3 |  |  | NC(=O)c1ccc(O)c(O)c1 [Formula (IV), 3,4-dihydroxybenzamide] | clearly show inter-molecular interaction of all aromatic peaks |  |  | tumor size vs Control group ([4]; Day 22 post-tumor implantation (FIG. 17A)): decreased; melanoma progression in vivo ([4]; mice bearing B16 tumors, n=8 (FIG. 17A)): suppressed melanoma progression; median survival time (MST) ([4]; mice bearing B16 tumors, n=8 (FIG. 17B)): 34 days
4 | 28.8 | SERPINB9 binders | CCOc1ccc(C(=O)NCc2ccccc2)cc1O [Compound 227, N-benzyl-4-ethoxy-3-hydroxybenzamide] |  |  |  | 
5 |  |  | COC(=O)c1cc(N)c(O)cc1NC(=O)OC(C)(C)C [Formula (I), methyl 5-amino-2-((tert-butoxycarbonyl)amino)-4-hydroxybenzoate] | confirmed the binding activities | significantly decreased | significantly increased caspase-3 expression | tumor size vs Control group (4T1 breast tumors; Day 11 post-tumor implantation): significantly decreased
6 |  |  | COC(=O)c1cc(N)c(O)cc1NC(=O)c1ccccc1 [Formula (II), methyl 5-amino-2-benzamido-4-hydroxybenzoate] | confirmed the binding activities | significantly decreased | significantly increased caspase-3 expression | increase of caspase-3 expression, comparison between compounds (cancer cells): higher than the group treated with the compound of Formula (I)
